Measured values reported in US20150329558A1, “FUSED HETEROCYCLIC COMPOUNDS AS ION CHANNEL MODULATORS” (Gilead Sciences, Inc., priority 2011, published 2015).
Like-named read-outs stand apart in the source and are kept apart here.

Columns and labels:
[1] = target: wild-type human cardiac sodium channel, hNav1.5 (peak INa) (Homo sapiens, UniProt Q14524); assay: Peak INa screening assay (tonic and use-dependent block); format: cell-based
Summary of the method: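 Whole-cell automated patch clamp, HEK293 stably expressing hNav1.5 alpha without beta subunits, 23-25° C, holding −100 mV; bath Na⁺ reduced to 20 mM, CsF-based intracellular pH 7.4. Test compound 1 μM; tonic block at 0.1 Hz, use-dependent block at 3 Hz, % peak block after rundown correction.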

[2] = target: T1, hNav1.1 (Homo sapiens, UniProt P35498); assay: Nav1.1 use-dependent block, whole-cell voltage clamp; format: cell-based; details: use-dependent block 10 Hz, read-out: NAv1.1*-CHAN TEST-UDB-10 HZ-
T1 construct: expressed in transfected cells; host or cells: HEK293, transient transfection (α1:β1:β2 = 10:1:1)

[3] = % inhibition at 1 μM, tonic block, read-out: NAv1.5*-PEAK-TB-
[4] = % inhibition at 1 μM, use-dependent block 3 Hz, read-out: NAv1.5*-PEAK-UDB-3 HZ-
[5] = tonic block of peak INa, 0.1 Hz, 1 μM, read-out: Peak TB 1 μM
[6] = use-dependent block of peak INa, 3 Hz, 1 μM, read-out: Peak UDB 1 μM

wild-type human cardiac sodium channel, hNav1.5 (peak INa), sequence (Q14524 whole entry): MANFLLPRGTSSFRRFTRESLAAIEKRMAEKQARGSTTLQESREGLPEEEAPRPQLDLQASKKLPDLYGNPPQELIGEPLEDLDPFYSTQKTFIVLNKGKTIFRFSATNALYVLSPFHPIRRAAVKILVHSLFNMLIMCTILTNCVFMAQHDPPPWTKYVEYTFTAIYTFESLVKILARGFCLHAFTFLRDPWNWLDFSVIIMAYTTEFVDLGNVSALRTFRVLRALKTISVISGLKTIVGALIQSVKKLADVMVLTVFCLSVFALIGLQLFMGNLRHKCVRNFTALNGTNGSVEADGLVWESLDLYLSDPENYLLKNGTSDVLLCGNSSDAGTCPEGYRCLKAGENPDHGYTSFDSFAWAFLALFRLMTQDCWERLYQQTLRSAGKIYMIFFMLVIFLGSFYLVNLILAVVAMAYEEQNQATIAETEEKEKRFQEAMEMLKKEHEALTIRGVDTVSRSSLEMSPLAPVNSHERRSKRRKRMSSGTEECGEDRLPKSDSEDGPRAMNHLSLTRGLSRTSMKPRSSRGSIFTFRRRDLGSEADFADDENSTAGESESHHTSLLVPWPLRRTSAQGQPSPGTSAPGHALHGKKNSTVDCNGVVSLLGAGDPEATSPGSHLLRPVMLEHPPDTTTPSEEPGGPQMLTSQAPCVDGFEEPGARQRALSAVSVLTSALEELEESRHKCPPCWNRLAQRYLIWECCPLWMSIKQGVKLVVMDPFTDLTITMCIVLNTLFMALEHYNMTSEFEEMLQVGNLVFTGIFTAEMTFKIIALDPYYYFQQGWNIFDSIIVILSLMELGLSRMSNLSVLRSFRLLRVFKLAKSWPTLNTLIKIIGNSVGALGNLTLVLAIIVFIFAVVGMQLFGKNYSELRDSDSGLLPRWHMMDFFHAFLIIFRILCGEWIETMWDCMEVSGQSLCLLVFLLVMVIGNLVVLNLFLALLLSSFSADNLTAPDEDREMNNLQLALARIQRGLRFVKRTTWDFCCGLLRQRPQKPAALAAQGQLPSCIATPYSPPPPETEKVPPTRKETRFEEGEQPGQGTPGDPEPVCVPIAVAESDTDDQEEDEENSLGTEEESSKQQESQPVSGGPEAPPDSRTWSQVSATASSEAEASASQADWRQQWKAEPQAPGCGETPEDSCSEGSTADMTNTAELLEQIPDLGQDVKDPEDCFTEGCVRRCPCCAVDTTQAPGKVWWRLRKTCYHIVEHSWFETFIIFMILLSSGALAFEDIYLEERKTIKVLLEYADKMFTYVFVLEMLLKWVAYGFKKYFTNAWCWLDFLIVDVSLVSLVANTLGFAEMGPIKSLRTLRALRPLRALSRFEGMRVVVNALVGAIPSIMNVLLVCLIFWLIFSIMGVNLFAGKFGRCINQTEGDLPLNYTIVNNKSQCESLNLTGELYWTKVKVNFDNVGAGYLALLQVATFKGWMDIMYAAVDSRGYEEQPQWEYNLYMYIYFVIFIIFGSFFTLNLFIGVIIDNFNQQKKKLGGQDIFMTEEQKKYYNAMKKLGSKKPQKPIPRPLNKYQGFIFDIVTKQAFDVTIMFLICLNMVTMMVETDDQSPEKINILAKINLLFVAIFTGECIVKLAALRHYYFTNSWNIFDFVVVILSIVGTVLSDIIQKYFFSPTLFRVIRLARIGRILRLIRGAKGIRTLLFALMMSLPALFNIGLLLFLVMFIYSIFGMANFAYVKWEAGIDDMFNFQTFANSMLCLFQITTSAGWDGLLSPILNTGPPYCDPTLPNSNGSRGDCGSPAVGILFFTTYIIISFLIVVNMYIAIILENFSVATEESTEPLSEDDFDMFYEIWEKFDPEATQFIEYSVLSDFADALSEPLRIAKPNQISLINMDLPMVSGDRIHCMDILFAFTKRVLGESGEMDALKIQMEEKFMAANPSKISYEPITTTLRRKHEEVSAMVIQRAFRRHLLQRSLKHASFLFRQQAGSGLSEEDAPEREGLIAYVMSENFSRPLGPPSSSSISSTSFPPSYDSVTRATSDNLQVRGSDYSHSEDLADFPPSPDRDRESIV

| SMILES | inhibition at 1 µM [2] [%] | inhibition at 1 µM [1, 3] [%] | inhibition at 1 µM [1, 4] [%] | inhibition at 1 µM [1, 5] [%] | inhibition at 1 µM [1, 6] [%] |
| --- | --- | --- | --- | --- | --- |
| O=c1c2cc(-c3ccc(OC(F)(F)F)cc3)ccc2nnn1CC1(CN2CCOCC2)CC1 [II-40, 3-((1-(morpholinomethyl)cyclopropyl)methyl)-6-(4-(trifluoromethoxy)phenyl)benzo[d][1,2,3]triazin-4(3H)-one] |  | 15 | 29 | 15 | 29 |
| Cc1noc(Cn2cnc3ccc(-c4ccc(OC(F)(F)F)cc4)cc3c2=O)n1 [IV-6, 3-((3-methyl-1,2,4-oxadiazol-5-yl)methyl)-6-(4-(trifluoromethoxy)phenyl)quinazolin-4(3H)-one] | 3.1 | 12 | 7 | 12 | 7 |
| O=c1c2cc(-c3ccc(OC(F)(F)F)cc3)ccc2nnn1Cc1nnc(C2CC2)o1 [II-67, 3-((5-cyclopropyl-1,3,4-oxadiazol-2-yl)methyl)-6-(4-(trifluoromethoxy)phenyl)benzo[d][1,2,3]triazin-4(3H)-one] |  | 12 | 7 | 12 | 7 |
| O=c1c2cc(-c3ccc(OC(F)(F)F)cc3)ccc2nnn1CCc1ncccn1 [II-18, 3-(2-(pyrimidin-2-yl)ethyl)-6-(4-(trifluoromethoxy)phenyl)benzo[d][1,2,3]triazin-4(3H)-one] |  | 15 | 13 | 15 | 13 |
| O=c1c2cc(-c3ccc(OC(F)(F)F)cc3)ccc2nnn1Cc1noc(-c2ccccn2)n1 [II-54, 3-((5-(pyridin-2-yl)-1,2,4-oxadiazol-3-yl)methyl)-6-(4-(trifluoromethoxy)phenyl)benzo[d][1,2,3]triazin-4(3H)-one] |  | 5 | 8 | 5 | 8 |
| O=c1c2cc(-c3ccc(OC(F)(F)F)cc3)ccc2nnn1CCc1ccncn1 [II-17, 3-(2-(pyrimidin-4-yl)ethyl)-6-(4-(trifluoromethoxy)phenyl)benzo[d][1,2,3]triazin-4(3H)-one] |  | 11 | 7 | 11 | 7 |
| Cc1nc(Cn2cnc3ccc(-c4ccc(OC(F)(F)F)cc4)cc3c2=O)no1 [IV-9, 3-((5-methyl-1,2,4-oxadiazol-3-yl)methyl)-6-(4-(trifluoromethoxy)phenyl)quinazolin-4(3H)-one] | -6.5 |  |  |  |  |
| N#Cc1ccnc(OCCn2nnc3ccc(-c4ccc(OC(F)(F)F)cc4)cc3c2=O)n1 [II-36, 2-(2-(4-oxo-6-(4-(trifluoromethoxy)phenyl)benzo[d][1,2,3]triazin-3(4H)-yl)ethoxy)pyrimidine-4-carbonitrile] | 7.9 | 7 | 8 | 7 | 8 |
| O=c1c2cc(-c3ccc(OC(F)(F)F)cc3)ccc2nnn1CCOc1ncccn1 [II-32, 3-(2-(pyrimidin-2-yloxy)ethyl)-6-(4-(trifluoromethoxy)phenyl)benzo[d][1,2,3]triazin-4(3H)-one] | 21 | 16 | 21 | 16 | 21 |
| O=c1c2cc(-c3ccc(OC(F)(F)F)cc3)ccc2nnn1C1CCNCC1 [II-38, 3-(piperidin-4-yl)-6-(4-(trifluoromethoxy)phenyl)benzo[d][1,2,3]triazin-4(3H)-one] | -1 |  |  |  |  |
| Cc1ncc(Cn2nnc3ccc(-c4ccc(OC(F)(F)F)cc4)cc3c2=O)o1 [II-95, 3-((2-methyloxazol-5-yl)methyl)-6-(4-(trifluoromethoxy)phenyl)benzo[d][1,2,3]triazin-4(3H)-one] | -0.5 |  |  |  |  |
| Cc1noc(Cn2nnc3ccc(-c4ccc(OC(F)(F)F)cc4)cc3c2=O)n1 [II-3, 3-((3-methyl-1,2,4-oxadiazol-5-yl)methyl)-6-(4-(trifluoromethoxy)phenyl)benzo[d][1,2,3]triazin-4(3H)-one] | -6 | 19 | 10 | 19 | 10 |

Now from value to compound, other results behind:

| inhibition at 1 µM [2] [%] | SMILES | inhibition at 1 µM [1, 3] [%] | inhibition at 1 µM [1, 4] [%] | inhibition at 1 µM [1, 5] [%] | inhibition at 1 µM [1, 6] [%] |
| --- | --- | --- | --- | --- | --- |
| 19.3 | COc1cc(OC)nc(Cn2ncc3ccc(-c4ccc(OC(F)(F)F)cc4)cc3c2=O)n1 [III-19, 2-((4,6-dimethoxypyrimidin-2-yl)methyl)-7-(4-(trifluoromethoxy)phenyl)phthalazin-1 (2H)-one] | 14 | 19 | 14 | 19 |
| 7.1 | O=c1c2cc(-c3ccc(OC(F)(F)F)cc3)ccc2cnn1CCn1cccn1 [III-9, 2-(2-(1H-pyrazol-1-yl)ethyl)-7-(4-(trifluoromethoxy)phenyl)phthalazin-1(2H)-one] | 15 | 15 | 15 | 15 |
| 9.3 | O=c1c2cc(-c3ccc(OC(F)(F)F)cc3)ccc2cnn1Cc1ncccn1 [III-5, 2-(pyrimidin-2-ylmethyl)-7-(4-(trifluoromethoxy)phenyl)phthalazin-1(2H)-one] |  |  |  |  |
| 1.5 | Cn1cnc(C(=O)N2CCc3ccc(-c4ccc(C(F)(F)F)cc4)cc3C2)c1 [IX-39, (1-methyl-1H-imidazol-4-yl)(7-(4-(trifluoromethyl)phenyl)-3,4-dihydroisoquinolin-2(1H)-yl)methanone] |  |  |  |  |
| 11 | O=C1c2cc(-c3ccc(OC(F)(F)F)cc3)ccc2OCN1Cc1ncccn1 [VIII-20, 3-(pyrimidin-2-ylmethyl)-6-(4-(trifluoromethoxy)phenyl)-2H-benzo[e][1,3]oxazin-4(3H)-one] | 27 | 23 |  |  |
| 12.1 | CC1Oc2ccc(-c3ccc(OC(F)(F)F)cc3)cc2C(=O)N1Cc1ncccn1 (stereo not drawn) [VIII-7, 2-methyl-3-(pyrimidin-2-ylmethyl)-6-(4-(trifluoromethoxy)phenyl)-2H-benzo[e][1,3]oxazin-4(3H)-one] |  |  |  |  |
| 2.02 | O=C(c1ncccn1)N1CCc2ccc(-c3ccc(C(F)(F)F)cc3)cc2C1 [IX-7, pyrimidin-2-yl(7-(4-(trifluoromethyl)phenyl)-3,4-dihydroisoquinolin-2(1H)-yl)methanone] | 12 | 17 | 12 | 17 |
| -5.9 | O=C1c2cc(-c3ccc(OC(F)(F)F)cc3)ccc2CCN1Cc1ncccn1 [IX-1, 2-(pyrimidin-2-ylmethyl)-7-(4-(trifluoromethoxy)phenyl)-3,4-dihydroisoquinolin-1(2H)-one] |  |  |  |  |
| 1.5 | O=C(c1cccnn1)N1CCc2ccc(-c3ccc(C(F)(F)F)cc3)cc2C1 [IX-17, Pyridazin-3-yl(7-(4-(trifluoromethyl)phenyl)-3,4-dihydroisoquinolin-2 (1H)-yl) methanone] |  |  |  |  |
| 40.5 | O=c1c2cc(-c3ccc(OC(F)(F)F)cc3)ccc2cnn1CCOc1ncccn1 [III-28, 2-(2-(pyrimidin-2-yloxy)ethyl)-7-(4-(trifluoromethoxy)phenyl)phthalazin-1 (2H)-one] |  |  |  |  |
| 3.1 | O=C1c2cc(-c3ccc(OC(F)(F)F)cc3)ccc2OCN1Cc1ccccn1 [VIII-3, 3-(pyridin-2-ylmethyl)-6-(4-(trifluoromethoxy)phenyl)-2H-benzo[e][1,3]oxazin-4(3H)-one] | 21 | 12 | 21 | 12 |
| 4.4 | O=C1c2cc(-c3ccc(C(F)(F)F)cc3)ccc2OCN1Cc1ccccn1 [VIII-1, 3-(pyridin-2-ylmethyl)-6-(4-(trifluoromethyl)phenyl)-2H-benzo[e][1,3]oxazin-4(3H)-one] | 35 | 26 | 35 | 26 |
| 2.9 | O=C1c2cc(-c3ccc(C(F)(F)F)cc3)ccc2CCN1Cc1ncccn1 [IX-3, 2-(pyrimidin-2-ylmethyl)-7-(4-(trifluoromethyl)phenyl)-3,4-dihydroisoquinolin-1(2H)-one] |  |  |  |  |
